Where two headings read alike, the source gives them in different places.
Legend:
[1] = target: SARS-CoV-2 NSP3 macrodomain (Mac1), P43 crystal form (Severe acute respiratory syndrome coronavirus 2, UniProt P0DTD1); type: binding; conditions: for Number of isomers bound: ligand modeling in Mac1 crystal soak; for Isomers modeled: stereoisomer(s) of ligand modeled in Mac1 crystal structure
[2] = target: SARS-CoV-2 NSP3 macrodomain (Mac1) (Severe acute respiratory syndrome coronavirus 2, UniProt P0DTD1); test: biochemical; type: binding; conditions: for Ligand efficiency (binding enery per heavy atom) / IC50 / Ki: SARS CoV-2 macrodomain HTRF assay; for IC50 / Ki: dose-response; for IC50: read-out: IC50; for Ki: read-out: Ki
[3] = Single dose, concentration 200 μM, read-out: Average % competition
[4] = preliminary screen, compound at 200 μM, mean of 3-4 technical replicates, read-out: % competition in HTRF assay
[5] = Single dose, concentration 200 μM, read-out: SARS CoV-2 macrodomain HTRF assay: Average % competition

| Compound | PanDDA run, TFA/DMSO background map: 1-BDC ([1]; crystal soak 10 mM) | PanDDA run, TFA/DMSO background map: Hit ([1]; crystal soak 10 mM) | Number of isomers bound [1] | inhibition at 200 µM [2, 3] | inhibition at 200 µM [2, 4] | Isomers modeled [1] | inhibition at 200 µM [2, 5] | fold decrease in affinity compared to AVI-607 ([2]; HTRF) | Ligand efficiency (binding enery per heavy atom) [2] | IC50 [2] | Ki [2] | PanDDA run, TFA/DMSO background map: 1-BDC ([1]; soak concentration 10 mM) | PanDDA run, TFA/DMSO background map: Hit ([1]; soak concentration 10 mM) |
| --- | --- | --- | --- | --- | --- | --- | --- | --- | --- | --- | --- | --- | --- |
| Cc1ccccc1CC(CO)Nc1ncnc2[nH]ccc12 (stereo not shown) [AVI-3674] | 0.15 | TRUE | 1 | 32% |  |  |  |  |  |  |  |  |  |
| OCC(CN1CCCCC1)Nc1ncnc2[nH]ccc12 (stereo not shown) [AVI-3677] | 0.18 | TRUE | 1 | < 10% | < 10% |  |  |  |  |  |  |  |  |
| OCC(Nc1ncnc2[nH]ccc12)C1CCOC1 (stereo not shown) [AVI-3679] | 0.11 | TRUE | 1 | 35% | 35% |  |  |  |  |  |  |  |  |
| O=C(O)C(F)(F)F.OCC12CC(CN1c1ncnc3[nH]ccc13)C2 [AVI-3681] | 0.12 | TRUE | 1 |  | 54% | achiral | 54% |  |  |  |  |  |  |
| Cc1ccc(CC(CO)Nc2ncnc3[nH]ccc23)cc1 (stereo not shown) [AVI-3683] |  |  | 2 | 14% | 14% | S,R |  |  |  |  |  |  |  |
| Cc1ccc(CC(CO)Nc2ncnc3[nH]ccc23)cc1C (stereo not shown) [AVI-3684] |  |  | 2 | < 10% | < 10% | R,S |  |  |  |  |  |  |  |
| OCC1CCCN1c1ncnc2[nH]ccc12 (stereo not shown) [AVI-3685] |  |  | 1 |  | 48% |  | 47% | > 20 fold |  |  |  |  |  |
| OCC(Cc1ccc(I)cc1)Nc1ncnc2[nH]ccc12 (stereo not shown) [AVI-3686] | 0.19 | TRUE | 2 | < 10% | < 10% | S,R |  |  |  |  |  |  |  |
| O=C(O)C(F)(F)F.OCC1(Nc2ncnc3[nH]ccc23)CC1 [AVI-3688] | 0.17 | TRUE | 1 | 72% | 72% | achiral |  |  |  |  |  |  |  |
| OCC(CC1CCCCC1)Nc1ncnc2[nH]ccc12 (stereo not shown) [AVI-3690] |  |  | 1 | 66% | 68% |  |  |  |  |  |  |  |  |
| OCC(CC1CCCC1)Nc1ncnc2[nH]ccc12 (stereo not shown) [AVI-3691] | 0.1 | TRUE | 1 | 52% | 53% |  |  |  |  |  |  |  |  |
| O=C(O)C(F)(F)F.OCC1(Nc2ncnc3[nH]ccc23)CCCC1 [AVI-3692] | 0.11 | TRUE | 1 |  |  | achiral |  |  | 0.35 | 49 µM | 46 µM |  |  |
| OCC(Nc1ncnc2[nH]ccc12)C1CCc2ccccc21 (stereo not shown) [AVI-3693] |  |  | 2 | 78% | 78% | RR,SR |  |  |  |  |  |  |  |
| CCC(CC)(CO)Nc1ncnc2[nH]ccc12 [AVI-3695] |  |  | 1 |  |  | achiral,achiral |  |  | 0.36 | 40 µM | 37 µM |  |  |
| OCC(Cc1ccccn1)Nc1ncnc2[nH]ccc12 (stereo not shown) [AVI-3696] |  |  | 2 | 34% | 34% | R,S |  |  |  |  |  |  |  |
| CCC(C)(CO)Nc1ncnc2[nH]ccc12 (stereo not shown) [AVI-3697] |  |  | 1 |  |  |  |  |  | 0.39 | 36 µM | 34 µM |  |  |
| OCC(O)C1CCCN1c1ncnc2[nH]ccc12 (stereo not shown) [AVI-3701] |  |  | 1 |  | 54% |  | 54% |  |  |  |  | 0.16 | TRUE |
| O=C(O)C(F)(F)F.OC[C@H]1CC2(CN1c1ncnc3[nH]ccc13)OCCO2 [AVI-3702] |  |  | 1 |  | 17% |  | 17% |  |  |  |  | 0.13 | TRUE |
| OCC(Cc1cncs1)Nc1ncnc2[nH]ccc12 (stereo not shown) [AVI-3703] |  |  | 1 | 28% | 28% |  |  |  |  |  |  | 0.1 | TRUE |

— publication doi:10.1101/2024.08.25.609621 (bioRxiv, 2024)
